Counter-ions that a name gives are not always drawn.
How the values were obtained:
MT1 receptor = MT1 receptor (Homo sapiens, UniProt P48039); experiment: Binding to melatonin receptor MT1 (2-[125I]-iodomelatonin); settings: 2-[125I]-iodomelatonin radioligand, triplicate
Protocol: (§1) Study of Binding to Melatonin Receptors MT1 and MT2
(§2) The MT1 or MT2 receptor binding experiments are carried out using 2-[^125I]-iodomelatonin as reference radioligand. The radioactivity retained is determined using a liquid scintillation counter.
(§3) Competitive binding experiments are then carried out in triplicate using the various test compounds. A range of different concentrations is tested for each compound. The results enable the binding affinities (Ki) of the compounds tested to be determined.

MT2 receptor = molecular target: T1, MT2 receptor (Homo sapiens, UniProt P49286); experiment: Binding to melatonin receptor MT2 (2-[125I]-iodomelatonin); settings: 2-[125I]-iodomelatonin radioligand, triplicate
T1 sequence (P49286 1-362): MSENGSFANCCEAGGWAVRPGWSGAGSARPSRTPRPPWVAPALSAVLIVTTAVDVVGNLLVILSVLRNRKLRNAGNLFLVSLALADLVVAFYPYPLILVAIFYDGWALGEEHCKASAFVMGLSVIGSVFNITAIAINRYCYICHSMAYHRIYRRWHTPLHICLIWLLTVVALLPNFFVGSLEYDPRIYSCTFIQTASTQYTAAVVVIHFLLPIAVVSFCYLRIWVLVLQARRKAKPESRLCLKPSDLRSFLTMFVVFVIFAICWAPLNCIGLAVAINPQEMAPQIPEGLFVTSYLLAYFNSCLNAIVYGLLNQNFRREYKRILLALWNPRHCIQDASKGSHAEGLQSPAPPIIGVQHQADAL
Protocol: as §1, §2, §3

Forced swimming test = type: in vivo; settings: 40 minutes before the test
Protocol: The compounds of the invention are tested in a behavioural model, the forced swimming test.
The apparatus is a Plexiglas cylinder filled with water. The animals are tested individually for a session of 6 minutes. At the beginning of each test, the animal is placed in the centre of the cylinder. The period of immobility is recorded. Each animal is judged to be immobile when it ceases to struggle and remains immobile on the surface of the water only making movements that allow it to keep its head out of the water.
In particular, the compound of Example 9, administered at 2.5 mg/kg per os, causes the duration of immobility to be reduced from 102 seconds (control) to 57 seconds. The compound of Example 3, administered at 25 mg/kg per os, causes the duration of immobilisation to be reduced from 129 seconds (control) to 60 seconds.

MT1 receptor, sequence (P48039 whole entry): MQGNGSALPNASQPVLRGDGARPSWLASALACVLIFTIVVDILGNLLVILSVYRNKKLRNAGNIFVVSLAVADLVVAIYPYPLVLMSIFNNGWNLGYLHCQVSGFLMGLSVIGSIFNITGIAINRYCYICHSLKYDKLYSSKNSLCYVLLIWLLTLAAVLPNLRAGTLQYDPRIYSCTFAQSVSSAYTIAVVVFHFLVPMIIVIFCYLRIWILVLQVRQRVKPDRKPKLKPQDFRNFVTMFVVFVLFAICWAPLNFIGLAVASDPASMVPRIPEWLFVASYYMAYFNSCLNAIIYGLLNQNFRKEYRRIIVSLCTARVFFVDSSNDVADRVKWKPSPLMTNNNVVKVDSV

Row | Ki (MT1 receptor) | Ki (MT2 receptor) | Compound | duration of immobilisation (Forced swimming test; 25 mg/kg per os, control 129 seconds) | duration of immobility (Forced swimming test; 2.5 mg/kg per os, control 102 seconds)
1 | 3.8 nM | 2.6 nM | CNC(=O)CCCc1cncc2ccc(OC)cc12 [Example 3, 4-(6-methoxy-4-isoquinolinyl)-N-methylbutanamide] | 60 s | 
2 | 9.12 nM | 2.16 nM | COc1ccc2cncc(CCNC(C)=O)c2c1.Cl [Example 9, N-[2-(6-methoxy-4-isoquinolinyl)ethyl]acetamide hydrochloride] |  | 57 s
3 | 4.26 nM | 1.14 nM | CCC(=O)NCCc1cncc2ccc(OC)cc12 [Example 10, N-[2-(6methoxy-4-isoquinolinyl)ethyl]propanamide hydrochloride] |  | 

Source: patent US7214689B2, “Isoquinoline compounds” (Les Laboratoires Servier, priority 2003, dated 2007)
